Measurements as given in patent publication US10004701B2, “Methods and compositions for treating infection” (UNIVERSITY OF ROCHESTER, priority 2012, dated 2018).
Where a name gives a salt, the structure may show the parent alone. Read-outs that look alike come from different tables or passages of the source.

How the values were obtained:
Assay in all cases: AK assay 384-well format, Prestwick library screening
E. faecium = assay type: cell-based, Enterococcus faecium; settings: Enterococcus faecium, 3 h, 50 μM final drug concentration
E. cloacae = assay type: cell-based, Enterobacter cloacae; settings: Enterobacter cloacae, 3 h, 50 μM final drug concentration
E. coli = assay type: cell-based, Escherichia coli; settings: Escherichia coli, 3 h, 50 μM final drug concentration
[1] = tested on: S. aureus strain USA300-0114; assay type: cell-based, Staphylococcus aureus; settings: Staphylococcus aureus, USA300, 3 h, 50 μM final drug concentration
P. aeruginosa = assay type: cell-based, Pseudomonas aeruginosa; settings: Pseudomonas aeruginosa, 3 h, 50 μM final drug concentration
[2] = tested on: A. baumannii strain 98-37-09; assay type: cell-based, Acinetobacter baumannii; settings: Acinetobacter baumannii, 983709, 3 h, 50 μM final drug concentration
K. pneumoniae = assay type: cell-based, Klebsiella pneumoniae; settings: Klebsiella pneumoniae, 3 h, 50 μM final drug concentration
[3] = planktonic E. faecium, 384-well, cutoff for positive-scoring molecules 3-fold increase, read-out: AK-based Prestwick Library Screening Results: E. faecium (increase in extracellular AK activity)
[4] = planktonic E. cloacae, 384-well, cutoff for positive-scoring molecules 3-fold increase, read-out: AK-based Prestwick Library Screening Results: E. cloacae (increase in extracellular AK activity)
[5] = planktonic E. coli, 384-well, cutoff for positive-scoring molecules 3-fold increase, read-out: AK-based Prestwick Library Screening Results: E. coli (increase in extracellular AK activity)
[6] = planktonic S. aureus, 384-well, cutoff for positive-scoring molecules 3-fold increase, read-out: AK-based Prestwick Library Screening Results: S. aureus (increase in extracellular AK activity)
[7] = planktonic P. aeruginosa, 384-well, cutoff for positive-scoring molecules 3-fold increase, read-out: AK-based Prestwick Library Screening Results: P. aeruginosa (increase in extracellular AK activity)
[8] = planktonic A. baumannii, 384-well, cutoff for positive-scoring molecules 3-fold increase, read-out: AK-based Prestwick Library Screening Results: A. baumannii (increase in extracellular AK activity)
[9] = planktonic K. pneumoniae, 384-well, cutoff for positive-scoring molecules 3-fold increase, read-out: AK-based Prestwick Library Screening Results: K. pneumoniae (increase in extracellular AK activity)
[10] = planktonic E. faecium, cutoff for positive-scoring molecules 3-fold increase, read-out: AK-based Prestwick Library Screening Results, E. faecium (increase in extracellular AK activity)
[11] = planktonic E. cloacae, cutoff for positive-scoring molecules 3-fold increase, read-out: AK-based Prestwick Library Screening Results, E. cloacae (increase in extracellular AK activity)
[12] = planktonic E. coli, cutoff for positive-scoring molecules 3-fold increase, read-out: AK-based Prestwick Library Screening Results, E. coli (increase in extracellular AK activity)
[13] = planktonic S. aureus, cutoff for positive-scoring molecules 3-fold increase, read-out: AK-based Prestwick Library Screening Results, S. aureus (increase in extracellular AK activity)
[14] = planktonic P. aeruginosa, cutoff for positive-scoring molecules 3-fold increase, read-out: AK-based Prestwick Library Screening Results, P. aeruginosa (increase in extracellular AK activity)
[15] = planktonic A. baumannii, cutoff for positive-scoring molecules 3-fold increase, read-out: AK-based Prestwick Library Screening Results, A. baumannii (increase in extracellular AK activity)
[16] = planktonic K. pneumoniae, cutoff for positive-scoring molecules 3-fold increase, read-out: AK-based Prestwick Library Screening Results, K. pneumoniae (increase in extracellular AK activity)

## Nc1c2c(nc3ccccc13)CCCC2 [Tacrine hydrochloride hydrate]
E. faecium; [3]
  fold induction at 50 µM: 0.9
E. cloacae; [4]
  fold induction at 50 µM: 0.4
E. coli; [5]
  fold induction at 50 µM: 0.5
[1]; [6]
  fold induction at 50 µM: 0.5
P. aeruginosa; [7]
  fold induction at 50 µM: 0.5
[2]; [8]
  fold induction at 50 µM: 0.5
K. pneumoniae; [9]
  fold induction at 50 µM: 0.4

## CC1(C)S[C@@H]2[C@H](NC(=O)[C@H](N)c3ccccc3)C(=O)N2[C@H]1C(=O)OC1OC(=O)c2ccccc21 (stereo partly shown) [Talampicillin hydrochloride]
E. faecium; planktonic E. faecium, […], read-out: AK-based Prestwick library screening result, E. faecium (fold increase in extracellular AK activity)
  fold induction at 50 µM: 1.4
E. cloacae; planktonic E. cloacae, […], read-out: AK-based Prestwick library screening result, E. cloacae (fold increase in extracellular AK activity)
  fold induction at 50 µM: 1.6
E. coli; planktonic E. coli, […], read-out: AK-based Prestwick library screening result, E. coli (fold increase in extracellular AK activity)
  fold induction at 50 µM: 15.2
[1]; planktonic S. aureus, […], read-out: AK-based Prestwick library screening result, S. aureus (fold increase in extracellular AK activity)
  fold induction at 50 µM: 1.2
P. aeruginosa; planktonic P. aeruginosa, […], read-out: AK-based Prestwick library screening result, P. aeruginosa (fold increase in extracellular AK activity)
  fold induction at 50 µM: 1.1
[2]; planktonic A. baumannii, […], read-out: AK-based Prestwick library screening result, A. baumannii (fold increase in extracellular AK activity)
  fold induction at 50 µM: 0.8
K. pneumoniae; planktonic K. pneumoniae, […], read-out: AK-based Prestwick library screening result, K. pneumoniae (fold increase in extracellular AK activity)
  fold induction at 50 µM: 0.8

## CC/C(=C(\c1ccccc1)c1ccc(OCCN(C)C)cc1)c1ccccc1 [Tamoxifen citrate]
E. faecium; [3]
  fold induction at 50 µM: 4
E. cloacae; [4]
  fold induction at 50 µM: 1.3
E. coli; [5]
  fold induction at 50 µM: 1.9
[1]; [6]
  fold induction at 50 µM: 2.1
P. aeruginosa; [7]
  fold induction at 50 µM: 1.4
[2]; [8]
  fold induction at 50 µM: 6.6
K. pneumoniae; [9]
  fold induction at 50 µM: 2.1

## Cc1scc2c1N(C(=O)CN1CCN(C)CC1)c1ccccc1NC2=O [Telenzepine dihydrochloride]
E. faecium; [3]
  fold induction at 50 µM: 1.1
E. cloacae; [4]
  fold induction at 50 µM: 1.4
E. coli; [5]
  fold induction at 50 µM: 1.5
[1]; [6]
  fold induction at 50 µM: 1.3
P. aeruginosa; [7]
  fold induction at 50 µM: 1.2
[2]; [8]
  fold induction at 50 µM: 1.6
K. pneumoniae; [9]
  fold induction at 50 µM: 1

## CN1C(C(=O)Nc2ccccn2)=C(O)c2sccc2S1(=O)=O [Tenoxicam]
E. faecium; planktonic, cutoff for positive 3-fold increase, read-out: AK-based Prestwick Library Screening Results, E. faecium (fold increase in extracellular AK activity)
  fold induction at 50 µM: 1
E. cloacae; planktonic, cutoff for positive 3-fold increase, read-out: AK-based Prestwick Library Screening Results, E. cloacae (fold increase in extracellular AK activity)
  fold induction at 50 µM: 1.6
E. coli; planktonic, cutoff for positive 3-fold increase, read-out: AK-based Prestwick Library Screening Results, E. coli (fold increase in extracellular AK activity)
  fold induction at 50 µM: 1.3
[1]; planktonic, cutoff for positive 3-fold increase, read-out: AK-based Prestwick Library Screening Results, S. aureus (fold increase in extracellular AK activity)
  fold induction at 50 µM: 1.2
P. aeruginosa; planktonic, cutoff for positive 3-fold increase, read-out: AK-based Prestwick Library Screening Results, P. aeruginosa (fold increase in extracellular AK activity)
  fold induction at 50 µM: 1.1
[2]; planktonic, cutoff for positive 3-fold increase, read-out: AK-based Prestwick Library Screening Results, A. baumannii (fold increase in extracellular AK activity)
  fold induction at 50 µM: 1
K. pneumoniae; planktonic, cutoff for positive 3-fold increase, read-out: AK-based Prestwick Library Screening Results, K. pneumoniae (fold increase in extracellular AK activity)
  fold induction at 50 µM: 0.9

## COc1cc2nc(N3CCN(C(=O)C4CCCO4)CC3)nc(N)c2cc1OC (stereo not shown) [Terazosin hydrochloride]
E. faecium; planktonic, cutoff for positive-scoring molecules 3-fold increase, read-out: AK-based Prestwick Library Screening Results, E. faecium (fold increase in extracellular AK activity)
  fold induction at 50 µM: 0.8
E. cloacae; planktonic, cutoff for positive-scoring molecules 3-fold increase, read-out: AK-based Prestwick Library Screening Results, E. cloacae (fold increase in extracellular AK activity)
  fold induction at 50 µM: 1.2
E. coli; planktonic, cutoff for positive-scoring molecules 3-fold increase, read-out: AK-based Prestwick Library Screening Results, E. coli (fold increase in extracellular AK activity)
  fold induction at 50 µM: 0.8
[1]; planktonic, cutoff for positive-scoring molecules 3-fold increase, read-out: AK-based Prestwick Library Screening Results, S. aureus (fold increase in extracellular AK activity)
  fold induction at 50 µM: 0.8
P. aeruginosa; planktonic, cutoff for positive-scoring molecules 3-fold increase, read-out: AK-based Prestwick Library Screening Results, P. aeruginosa (fold increase in extracellular AK activity)
  fold induction at 50 µM: 0.6
[2]; planktonic, cutoff for positive-scoring molecules 3-fold increase, read-out: AK-based Prestwick Library Screening Results, A. baumannii (fold increase in extracellular AK activity)
  fold induction at 50 µM: 0.7
K. pneumoniae; planktonic, cutoff for positive-scoring molecules 3-fold increase, read-out: AK-based Prestwick Library Screening Results, K. pneumoniae (fold increase in extracellular AK activity)
  fold induction at 50 µM: 0.7

## CC(C)N1CCN(c2ccc(OCC3COC(Cn4cncn4)(c4ccc(Cl)cc4Cl)O3)cc2)CC1 (stereo not shown) [Terconazole]
E. faecium; [10]
  fold induction at 50 µM: 1
E. cloacae; [11]
  fold induction at 50 µM: 0.9
E. coli; [12]
  fold induction at 50 µM: 0.9
[1]; [13]
  fold induction at 50 µM: 0.6
P. aeruginosa; [14]
  fold induction at 50 µM: 0.8
[2]; [15]
  fold induction at 50 µM: 0.8
K. pneumoniae; [16]
  fold induction at 50 µM: 0.7

## CCC(=O)O[C@H]1CC[C@H]2[C@@H]3CCC4=CC(=O)CC[C@]4(C)[C@H]3CC[C@]12C [Testosterone propionate]
E. faecium; planktonic E. faecium, 384-well, […], read-out: AK-based Prestwick Library Screening Results: E. faecium (increase in extracellular AK activity)
  fold induction at 50 µM: 0.9
E. cloacae; planktonic E. cloacae, 384-well, […], read-out: AK-based Prestwick Library Screening Results: E. cloacae (increase in extracellular AK activity)
  fold induction at 50 µM: 0.3
E. coli; planktonic E. coli, 384-well, […], read-out: AK-based Prestwick Library Screening Results: E. coli (increase in extracellular AK activity)
  fold induction at 50 µM: 0.5
[1]; planktonic S. aureus, 384-well, […], read-out: AK-based Prestwick Library Screening Results: S. aureus (increase in extracellular AK activity)
  fold induction at 50 µM: 0.3
P. aeruginosa; planktonic P. aeruginosa, 384-well, […], read-out: AK-based Prestwick Library Screening Results: P. aeruginosa (increase in extracellular AK activity)
  fold induction at 50 µM: 0.4
[2]; planktonic A. baumannii, 384-well, […], read-out: AK-based Prestwick Library Screening Results: A. baumannii (increase in extracellular AK activity)
  fold induction at 50 µM: 0.5
K. pneumoniae; planktonic K. pneumoniae, 384-well, […], read-out: AK-based Prestwick Library Screening Results: K. pneumoniae (increase in extracellular AK activity)
  fold induction at 50 µM: 0.4

## CCCCNc1ccc(C(=O)OCCN(C)C)cc1 [Tetracaine hydrochloride]
E. faecium; [10]
  fold induction at 50 µM: 0.9
E. cloacae; [11]
  fold induction at 50 µM: 0.9
E. coli; [12]
  fold induction at 50 µM: 0.9
[1]; [13]
  fold induction at 50 µM: 0.6
P. aeruginosa; [14]
  fold induction at 50 µM: 0.8
[2]; [15]
  fold induction at 50 µM: 0.8
K. pneumoniae; [16]
  fold induction at 50 µM: 0.6

## CN(C)[C@@H]1C(O)=C(C(N)=O)C(=O)[C@@]2(O)C(O)=C3C(=O)c4c(O)cccc4[C@@](C)(O)[C@H]3C[C@@H]12 [Tetracycline hydrochloride]
E. faecium; [3]
  fold induction at 50 µM: 1
E. cloacae; [4]
  fold induction at 50 µM: 1
E. coli; [5]
  fold induction at 50 µM: 0.8
[1]; [6]
  fold induction at 50 µM: 9.2
P. aeruginosa; [7]
  fold induction at 50 µM: 0.5
[2]; [8]
  fold induction at 50 µM: 4.4
K. pneumoniae; [9]
  fold induction at 50 µM: 0.2
